Source: patent US11639345B2, “Methionine metabolic pathway inhibitors” (MIGAL—GALILEE RESEARCH INSTITUTE LTD., priority 2018, dated 2023)

How the values were obtained:
[1] = biological target: T1, CGS from Nicotiana tabacum (Nicotiana tabacum, UniProt Q9ZPL5); settings: Steegborn et al. (2001); cited from earlier work
T1 sequence (Q9ZPL5 96-540 limits assumed): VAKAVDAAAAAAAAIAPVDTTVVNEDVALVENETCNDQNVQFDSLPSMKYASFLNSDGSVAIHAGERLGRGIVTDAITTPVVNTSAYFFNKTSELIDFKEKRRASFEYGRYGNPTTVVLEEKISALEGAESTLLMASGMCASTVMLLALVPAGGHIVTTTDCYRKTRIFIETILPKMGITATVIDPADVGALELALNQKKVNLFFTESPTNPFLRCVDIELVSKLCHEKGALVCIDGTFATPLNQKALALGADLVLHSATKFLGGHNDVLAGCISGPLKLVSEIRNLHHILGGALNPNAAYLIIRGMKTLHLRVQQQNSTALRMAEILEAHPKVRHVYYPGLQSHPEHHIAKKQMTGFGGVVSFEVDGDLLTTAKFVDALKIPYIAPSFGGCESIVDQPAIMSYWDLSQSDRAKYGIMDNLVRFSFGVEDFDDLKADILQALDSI

Arabidopsis thaliana = Arabidopsis thaliana root growth inhibition; type: in vivo; settings: 168 h, root length ratio vs DMSO control, 50 μM compound, lower values indicate shorter root, larger effect, read-out: Arabidopsis (relative to DMSO)
Procedure: Finally, FIGS. 7a-7o are the photos of the Arabidopsis thaliana plants and the inhibition of their roots growth by the compounds of the present invention. These experiments were conducted as follows. Seeds were washed with 70% ethanol for one minute and then with sterile water. Sterilisation was performed with 50% bleaching solution (3%) and 0.2% Triton x-100 for ten minutes followed by a five-time wash with sterile water. The seeds were placed in six well-plates with half Murashige and Skoog medium (MS; Duchefa, Haarlem, Netherlands), containing 1% sucrose (w/v), pH 5.8. The plates with Arabidopsis thaliana seeds were placed at 4° C. for two days and then transferred for seven days to growth chamber (22±2° C.) at day/light cycles of 16/8 h. The plates were placed vertically. In each plate, a control including 0.1% DMSO in the medium was added. The compounds of the present invention were tested for their herbicidal efficiency by diluting 1000 times a 50 mM stock in DMSO leading to a final concentration of 50 μM with 0.1% DMSO.
In Tables 1, 2 and 4 above, Arabidopsis root length was measured after addition of 50-μM compound compared with the negative control (DMSO) treatment. Length values indicate the ratio between non-treated plates ([…]) and the length after the addition of 50 uM of each compound. Lower values indicate shorter root length, and consequently, larger effect.

[2] = tested on: E. coli lacking the endogenic MetB CGS gene, transformed to express the CGS from Arabidopsis; assay: Growth of engineered E. coli expressing Arabidopsis CGS in M9 minimal media, with and without methionine; type: cell-based; settings: for E. coli Assay LE395 (0-5): score 0-5, growth of E. coli with Arabidopsis CGS gene in M9 minimal media; for E. coli specificity (MOA): score, growth with vs without external methionine (40 mg/L)
Procedure: In addition to the direct binding evaluation, specific assay to test the compounds activity and specificity were also developed. In this assay, E. coli cells, lacking the endogenic MetB CGS gene and transformed to express the CGS from Arabidopsis, were used. These cells were grown on M9 minimal media with and without external methionine supplemented to the cells, in the presence of the compounds of the embodiments. These selected compounds of the embodiments, capable of inhibiting the cell growth on M9, but incapable of affecting the cell growth when supplemented with methionine, were validated as methionine-pathway specific inhibitors.
In this assay, Methionine auxotroph E. coli mutant was transformed with PQE-30 vector containing the Arabidopsis CGS gene as previously described in Yael Hacham et al., Plant Physiol., February 2002, 128(2): 454-462. In order to test the effect of the small molecule inhibitors on the CGS and methionine pathway, growth curves of the E. coli in M9 minimal media with […] were measured with and without the addition of external methionine (40 mg/L) in the presence of variable compound concentrations. E. coli growth curves were measured by following the optical density at 600 nm of bacteria in 96 well-plate placed within Tecan M200 plate reader in orbital shaking mode at 37° C. The slope of each curve was estimated using the ‘linest’ function in Excel.

Roquette = Roquette assay spray; type: in vivo
Tobacco CGS [3] = biological target: T2, Tobacco CGS (Nicotiana tabacum, UniProt Q9ZPL5); assay: Malachite Green Phosphate assay of direct CGS activity; type: biochemical; design: 6xHIS (cleaved yes); GB1 solubility tag (cleaved yes); made in house; host or cells: E. coli BL-21; settings: 2 h; 50 μM compound, 1 μM CGS, two-hour incubation at 25° C.; read-out: Malachite Green Phosphate Assay (% to DMSO, 50 μM)
T2 sequence (Q9ZPL5 79-540): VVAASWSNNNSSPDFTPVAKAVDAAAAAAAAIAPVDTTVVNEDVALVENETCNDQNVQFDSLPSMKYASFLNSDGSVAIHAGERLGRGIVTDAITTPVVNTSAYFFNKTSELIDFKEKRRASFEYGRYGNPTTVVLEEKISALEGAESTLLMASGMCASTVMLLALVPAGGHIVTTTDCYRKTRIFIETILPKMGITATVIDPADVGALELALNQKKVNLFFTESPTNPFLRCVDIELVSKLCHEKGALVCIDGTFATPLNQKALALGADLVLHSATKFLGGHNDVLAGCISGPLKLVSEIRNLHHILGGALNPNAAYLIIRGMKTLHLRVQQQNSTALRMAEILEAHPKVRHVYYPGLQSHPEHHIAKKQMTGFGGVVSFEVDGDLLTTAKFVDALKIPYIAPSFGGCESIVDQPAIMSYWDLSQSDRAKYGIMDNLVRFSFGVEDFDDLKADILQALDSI
Procedure: As discussed above, the first reaction in methionine biosynthesis in plants is catalyzed by the CGS enzyme. In this reaction, the formation of cystathionine is conducted by the γ-replacement of the phosphoryl substituent of O-phospho-homoserine by cysteine and consecutive release of an orthophosphate group.
Expression of recombinant CGS was done by transforming the pET-11 vector containing the DNA sequence of Tobacco CGS with a 6xHIS tag and GB1 solubility tag followed by TEV cleavage site into BL-21 cells. These cells were cultured at 37° C. and optical density (OD)=0.8 protein at 600 nm, and the expression was induced by addition of 1 mM IPTG for 16 hours at 25° C. The protein was purified to homogeneity onto nickel column and cleaved by o/n dialysis with the TEV protease. A second nickel column was used to separate the cleaved CGS from the TEV and GB1 solubility tag.
The direct activity of CGS was tested using the Malachite Green Phosphate Assay Kit (Sigma-Aldrich, cat # MAK307-1KT). It is a highly sensitive and robust experiment used to measure the release of free orthophosphate group based on quantification of the green-coloured complex formed between Malachite Green, molybdate, and free orthophosphate. The rapid colour formation from the reaction can be conveniently measured on a spectrophotometer via the absorbance at 620 nm.
The assay mixture (100 μl) contained 50 mM MOPS—NaOH (pH 7.5), 150 mM NaCl, 0.1 mM PLP and 1 μM purified CGS. The compounds of the present invention were added at a final concentration of 50 μM and reactions were initiated by adding 2 mM cysteine and 3 mM O-phospho-L-homo-serine. After two-hour incubation at 25° C., 80 μL of each sample were transferred into a new 96 well-plate containing 20 μl of Malachite Green Reagent and incubated for additional 30 min at 25° C. Colour development was measured by a plate reader Tecan M200 (620 nm).

Tobacco CGS [4] = biological target: T2, Tobacco CGS; assay: Micro Scale Thermophoresis (MST) direct binding to CGS; design: 6xHIS (N, cleaved yes); GB1 solubility tag (N, cleaved yes); made in house; host or cells: E. coli BL21; settings: score 0-5; binding to labelled Tobacco CGS
Procedure: The direct binding of the compounds of the embodiments to the CGS was tested by Micro Scale Thermophoresis (MST). In the MST assay, the CGS protein was labelled with a fluorophore, the samples were heated, and changes in fluorescence were measured as a function of the ligand concentration. In the MST assay, similar to the expression and purification described above, the recombinant Tobacco CGS protein was expressed in E. coli BL21 cells and purified to homogeneity. For that particular purpose, the pET-11 vector containing the DNA sequence of Tobacco CGS with an N-terminus […] tag followed by a TEV-cleavable GB1 solubility tag was cloned and transformed into the bacteria cells. Cells were cultured to OD=0.8, and protein expression was induced by the addition of 1 mM IPTG. The cells were cultured for additional 16 hours temperature 25° C. Following cellular lysis, the soluble fraction was passed through the nickel column and the bound HIS-tagged protein was eluted by 300 mM imidazole. Then, the tags […] and GB1 were cleaved in dialysis o/n and the mixtures passed again through the nickel column to separate the CGS from the TEV and HIS-GB1 constructs. As a final step the CGS was run on S75 size exclusion chromatography. Thus, the MST assay was performed to measure the biding of the compounds to the CGS protein. For this purpose, the CGS was labelled with commercially available amine reactive fluorophore (Cat # MO-[…], NanoTemper) according to the manufacture instructions. The MST binding curves were then measured using the Monolith NT.115 apparatus by incubating the labelled protein with the indicated compounds in a dose-response manner.

Row | SMILES | affinity to the CGS [1] | activity at 50 µM (Arabidopsis thaliana) | E. coli Assay LE395 (0-5) [2] | E. coli specificity (MOA) [2] | TEV (relative to DMSO) (TEV (relative to DMSO)) | Roquette assay spray (single average) (Roquette) | Roquette assay spray (twice average) (Roquette) | remaining activity at 50 µM (Tobacco CGS [3]) | MST Tobacco (0-5) (Tobacco CGS [4])
1 | O=C(O)CSc1nc(-c2cccc(Cl)c2)no1 [5-carboxymethylthio-3-(3′-chlorophenyl)-1,2,4-oxadiazol] | highest affinity to the CGS reported so far |  |  |  |  |  |  |  | 
2 | Cc1cc(O)nc(C(=O)Nc2cccc(-c3nc(C)cc(O)n3)c2)c1 [IML-64] |  | 20% | 2 | 4 | 0.65 | 1.0 | 2.0 | 15.2% | 4
3 | COc1cccc(C(=O)Nc2cccc(-c3cn(Cc4ccccc4)nn3)c2)c1 [IML-69] |  | 22% |  |  | 0.71 | 1.0 | 2.0 | 30% | 5
4 | CCc1nc(-c2cccc(NC(=O)c3cccc(OC)c3)c2)no1 [IML-215] |  | 6% | 3 | 3 | 0.39 | 1.0 | 2.0 | 12.8% | 2
5 | CCc1noc(-c2cccc(NC(=O)c3cccc(OC)c3)c2)n1 [IML-216] |  | 20% | 3 | 5 | 0.57 | 2.0 | 2.0 |  | 2
6 | O=C(Nc1cccc(-c2csc(Nc3ccc(C(=O)O)c(O)c3)n2)c1)c1ccccc1 [IML-219] |  |  | 1 | 5 |  |  |  | 28.3% | 4
7 | COc1ccc(Cc2nc(-c3cccc(NC(=O)c4cccc(F)c4)c3)no2)cc1 [IML-220] |  |  | 3 | 5 |  |  |  | 10.8% | 
8 | CCc1nc(-c2cc(CC(=O)O)cc(NC(=O)c3cccc(OC)c3)c2)no1 [IML-228] |  |  |  |  |  |  |  | 27.4% | 
9 | CCc1nc(-c2cncc(NC(=O)c3cccc(OC)c3)c2)no1 [IML-229] |  | 10% |  |  | 0.44 |  |  | 19.6% | 
10 | CCn1cc(-c2cccc(NC(=O)c3cccc(OC)c3)c2)nn1 [IML-230] |  | 29% |  |  |  |  | 1.0 | 21.7% | 
11 | Cc1cc(O)nc(-c2cccc(NC(=O)c3c(O)cccc3F)c2)n1 [IMS-220] |  |  | 4 | 5 |  |  |  | 15.9% | 3
